Results reported in patent US20260055088A1, “HETEROCYCLIC COMPOUND, METHOD FOR PREPARING SAME, AND PHARMACEUTICAL USE THEREOF” (Jiangsu Hengrui Pharmaceuticals Co., Ltd., priority 2022, published 2026).

Key:
[1] = target: Nav1.8 ion channel stably expressed on HEK293 cells (Homo sapiens (Human), UniProt Q9Y5Y9); assay: Inhibitory activity against Nav1.8, manual patch clamp; assay type: cell-based; settings: resting protocol (-80 mV to 10 mV), 1 μM TTX, read-out: IC50 for the inhibition of Nav1.8 channel activity
[2] = Pharmacokinetic evaluation in SD rats (i.g.); assay type: in vivo; settings: male, Sprague-Dawley (SD), rat, plasma, po, 2.0 mg/kg; for AUC(0-t): read-out: Area under curve AUC0-t; for CL/F: read-out: Clearance rate CL/F; for half-life: read-out: Half-life T½ (converted); for Cmax: read-out: Plasma concentration Cmax
Method: SD rats were used as test animals. After intragastric (i.g.) administration of the example compounds to SD rats, the plasma concentrations of the compounds at different time points were determined by the LC/MS/MS method. The pharmacokinetic behaviors of the compounds of the present disclosure in SD rats were studied, and their pharmacokinetic profiles were evaluated.
Compounds 16 and 32: Four male SD rats, provided by Vital River Laboratory Animal Technology Co., Ltd. The animals were fasted overnight and then intragastrically dosed.
Compound 38: Two male SD rats, provided by Zhejiang Vital River Laboratory Animal Technology Co., Ltd. The animals were fasted overnight and then intragastrically dosed.
Compounds 16 and 32: Certain amounts of the test compounds were weighed out, and 5% DMSO+5% tween 80+90% normal saline was added to prepare 0.2 mg/mL colorless clear solutions.
Compound 38: A certain amount of the test compound was weighed out, and 25% PEG400+75% (10% TPGS+1% HPMC K100LV) was added to prepare a 5 mg/mL colorless clear solution.
Compounds 16 and 32: The administration dose was 2 mg/kg, and the administration volume was 10.0 mL/kg.
Compound 38: The administration dose was 50 mg/kg, and the administration volume was 10.0 mL/kg.
0.2-mL blood samples were collected from the orbit before administration and 0.25, 0.5, 1.0, 2.0, 4.0, 6.0, 8.0, 11.0, and 24.0 h after administration, placed into EDTA-K2 anticoagulation test tubes, and centrifuged at 10,000 rpm for 1 min (4° C.), and the plasma was separated within 1 h and stored with dry ice before analysis. The procedures from the blood collection to the centrifugation were performed under ice-bath conditions. Access to food was given 2 h after administration.
Compounds 16 and 32: Determination of the plasma concentrations of the test compounds in SD rats after the compounds were administered at different concentrations: A 25-μL sample of the SD rat plasma collected at each time point after administration was taken, and 200 μL of acetonitrile containing an internal standard (verapamil, 100 ng/mL) was added. The mixture was vortexed and centrifuged at 3700 rpm for 10 min. 0.1 μL of the supernatant was taken for LC/MS/MS analysis.
Compound 38: Determination of the plasma concentration of the test compound in SD rats after the compound was administered at different concentrations: A 25-μL sample of the SD rat plasma collected at each time point after administration was taken, and 200 μL of acetonitrile containing an internal standard (dexamethasone, 100 ng/mL) was added. The mixture was vortexed and centrifuged at 4000 rpm for 15 min. 1 μL of the supernatant was taken for LC/MS/MS analysis.

Structure (SMILES)	IC50 [1]	bioavailability [2]	AUC(0-t) [2]	CL/F [2]	half-life [2]	Cmax [2]
CO/N=C(\N)c1cc(NC(=O)[C@@H]2O[C@@](C)(C(F)(F)F)[C@@H](C)[C@H]2c2ccc(F)c(F)c2OC)ccn1 [Example 16]	0.33 nM	51.3%	329 ng·h/mL	101 mL/min/kg	9.1 h	120 ng/mL
COc1c([C@H]2[C@H](C(=O)Nc3ccnc(/C(N)=N/O)c3)O[C@@](C)(C(F)(F)F)[C@H]2C)ccc(F)c1F [Example 32]	0.93 nM	24.7%	321 ng·h/mL	96.9 mL/min/kg	2.6 h	85.7 ng/mL
